Laboratory results from patent publication US8529889B2, “Methods and compositions related to the modulation of intercellular junctions” (Massachusetts Institute of Technology, priority 2004, dated 2013).
Entries after “also recorded” stand apart in the source; their conditions may differ.

B1: heparinase I (protein, UniProt Q05819 22-384, looked up)
Heparin lyase I: QQKKSGNIPYRVNVQADSAKQKAIIDNKWVAVGINKPYALQYDDKLRFNGKPSYRFELKAEDNSLEGYAAGETKGRTELSYSYATTNDFKKFPPSVYQNAQKLKTVYHYGKGICEQGSSRSYTFSVYIPSSFPDNATTIFAQWHGAPSRTLVATPEGEIKTLSIEEFLALYDRMIFKKNIAHDKVEKKDKDGKITYVAGKPNGWKVEQGGYPTLAFGFSKGYFYIKANSDRQWLTDKADRNNANPENSEVMKPYSSEYKTSTIAYKMPFAQFPKDCWITFDVAIDWTKYGKEANTILKPGKLDVMMTYTKNKKPQKAHIVNQQEILIGRNDDDGYYFKFGIYRVGNSTVPVTYNLSGYSETAR
notes: Glycosaminoglycan-degrading enzyme; cleaves HSGAGs at the more sulfated, heparin-like regions
B2: heparinase III (protein, UniProt Q59289 25-659, looked up)
Heparin-sulfate lyase: QSSSITRKDFDHINLEYSGLEKVNKAVAAGNYDDAAKALLAYYREKSKAREPDFSNAEKPADIRQPIDKVTREMADKALVHQFQPHKGYGYFDYGKDINWQMWPVKDNEVRWQLHRVKWWQAMALVYHATGDEKYAREWVYQYSDWARKNPLGLSQDNDKFVWRPLEVSDRVQSLPPTFSLFVNSPAFTPAFLMEFLNSYHQQADYLSTHYAEQGNHRLFEAQRNLFAGVSFPEFKDSPRWRQTGISVLNTEIKKQVYADGMQFELSPIYHVAAIDIFLKAYGSAKRVNLEKEFPQSYVQTVENMIMALISISLPDYNTPMFGDSWITDKNFRMAQFASWARVFPANQAIKYFATDGKQGKAPNFLSKALSNAGFYTFRSGWDKNATVMVLKASPPGEFHAQPDNGTFELFIKGRNFTPDAGVFVYSGDEAIMKLRNWYRQTRIHSTLTLDNQNMVITKARQNKWETGNNLDVLTYTNPSYPNLDHQRSVLFINKKYFLVIDRAIGEATGNLGVHWQLKEDSNPVFDKTKNRVYTTYRDGNNLMIQSLNADRTSLNEEEGKVSYVYNKELKRPAFVFEKPKKNAGTQNFVSIVYPYDGQKAPEISIRENKGNDFEKGKLNLTLTINGKQQLVLVP
notes: Glycosaminoglycan-degrading enzyme; cleaves the less/unsulfated, heparan sulfate-like regions

Assays:
[1] = test system: calu-3 human lung adenocarcinoma epithelial cells; assay: Tight junction (ZO-1) and actin filament disruption by immunofluorescence and confocal microscopy, calu-3; format: cell-based; conditions: calu-3 cells
Protocol: (§1) Heparinase III (hep III) was made as described previously (Godavarti R et al., 1996); heparinase I (hep I) was a generous gift from Momenta pharmaceuticals (Cambridge, Mass.); chondroitinase ABC (C-ABC) lyase was purchased from Seikagaku (East Falmouth, Mass.). Hep III was added to the apical side of the cells at a concentration of 10 μg/mL; hep I was added at a concentration of 6 μg/mL, and C-ABC was added at 50 μU/mL. The concentration of ethylene glycol tetra acetic acid (EGTA) (Sigma) used was 5 mM. All the enzymes and the EGTA were made up in serum free Eagle's Minimal Essential medium with 2 mM L-glutamine. Heparin solution was made up to a concentration of 15 mM in serum free media and added to the apical side of the cells after removing the cell medium. Ardeparin sodium and ardeparin calcium powder were added to cells at 6 mg/well, and ardeparin solution was made up to a final concentration of 18 mM.
(§2) Cells grown on glass coverslips were fixed with 10% buffered formalin for 10 min. Cells were then permeabilized with 0.5% Triton-100 (Sigma) in Tris Buffer Saline with 1% Tween-20 (TBST) for 15 min. at room temperature. Nonspecific antibody binding was blocked with 0.1% bovine serum albumin (BSA) for 30 min. at room temperature. The cells were incubated with primary antibody at room temperature for 4 hours and washed 3 times with PBS. The cells were then incubated in the appropriate secondary antibody for 1 hour in the dark at room temperature and washed 3 times with PBS.
Calu-3 cells were seeded on gelatin coated coverslips and were allowed to grow for about 4 to 5 days to about 80% confluency. UFH powder was added to the apical side of the cells using an insufflator to ensure homogenous distribution of the powder on the coverslip.

[2] = test system: 16HBE14O-human virally transformed bronchial epithelial cells; assay: Tight junction (ZO-1) disruption by immunofluorescence and confocal microscopy, 16HBE14O-; format: cell-based; conditions: 16HBE14O- cells; for disruption of ZO-1 / tight junctions (epithelial permeability): hep III 10 μg/mL, hep I 6 μg/mL, C-ABC 50 μU/mL, EGTA 5 mM, 20 min. at 37° C.
Protocol: as §1, §2
16HBE14O-cells were grown to confluency on fibronectin coated coverslips for 4 to 5 days after seeding. The cells were then incubated with hep III, hep I, C-ABC and EGTA made up to the final concentration described above for 20 min. at 37° C. Using the primary rabbit anti-ZO-1 antibody and the secondary goat anti-rabbit Texas Red antibody, the cells were analyzed by the immunofluorescence and confocal microscopy technique discussed above. […] Localization of the tight junction protein in untreated cells is also shown as a control.

[3] = test system: caco-2 (human colon adenocarcinoma) cells; assay: Tight junction disruption in caco-2 cells; format: cell-based
Protocol: as §1, §2

[4] = test system: MCF-7 (human mammary cancer) cells; assay: Tight junction disruption in MCF-7 cells; format: cell-based
Protocol: as §1, §2

syndecan-1 = assay: Syndecan-1 ectodomain shedding, dot immunoassay, 16HBE14O- cells; format: cell-based, human; conditions: hep III 10 μg/mL, hep I 6 μg/mL, C-ABC 50 μU/mL
Protocol: as §1
(§3) Specificity and quantification of the dot immunoassay for shed syndecan-1 and -4 ectodomains has been previously described in detail (Subramanian et al., 1997). In brief, the conditioned media were diluted in buffer A (0.15 M NaCl buffered to pH 4.5 with 50 mM sodium acetate and with 0.1% Triton X-100) and applied to catonic polyvinylidine diflouride-based membranes (Immobilin-N) (Millipore, Bedford, Mass.) under mild vacuum in an immunodot apparatus (V&P Scientific, San Diego, Calif.). […]
(§4) Detection was by the ECL system (Amersham) as described by the manufacturer. Results were quantified by scanning the exposed membrane with a Kodak Image Station.
(§5) 16HBE14O-cells were grown to about 80% confluency in 6 well plates. […] To evaluate the changes in cell number, the cells were trypsinized and counted with a coulter-counter after incubation. […] The membranes were then incubated in mouse anti-syndecan-1 and in the appropriate secondary antibody and were developed and analyzed as described above. […]

syndecan-4 = assay: Syndecan-4 ectodomain shedding, dot immunoassay, 16HBE14O- cells; format: cell-based, human; conditions: hep III 10 μg/mL, hep I 6 μg/mL, C-ABC 50 μU/mL
Protocol: as §1, §3, §4, §5

Molecule | disruption of ZO-1 / tight junctions (epithelial permeability) [1] | time for cell line to recover from the effect of the treatment [1] | time for cell line to recover from the effect of the treatment [2] | disruption of ZO-1 / tight junctions (epithelial permeability) [2] | tight junction disruption (epithelial permeability) [3] | time for cell line to recover from the effect of the treatment [3] | tight junction disruption (epithelial permeability) [4] | time for cell line to recover from the effect of the treatment [4] | disruption of ZO-1 / tight junctions (epithelial permeability) ([2]; listed as C-ABC) | syndecan-1 ectodomain shedding (syndecan-1) | syndecan-4 ectodomain shedding (syndecan-4) | disruption of ZO-1 / tight junctions (epithelial permeability) ([2]; listed as hep I) | disruption of ZO-1 / tight junctions (epithelial permeability) ([2]; listed as hep III)
O=C(O)CN(CCOCCOCCN(CC(=O)O)CC(=O)O)CC(=O)O [EGTA, ethylene glycol tetra acetic acid, reference compound] | caused a disruption of the junctional complex | about 8 hours | about 8 hours | caused a disruption of the junctional complex; also recorded: cause different amounts of disruption of the tight junctions | caused a disruption of the junctional complex | about 8 hours | caused a disruption of the junctional complex | about 8 hours |  |  |  |  | 
chondroitinase ABC [cABC] | more effect than Hep I |  |  | more pronounced effect than Hep III | Hep III had more effect on tight junction disruption than cABC and Hep I |  | Hep III had more effect on tight junction disruption than cABC and Hep I |  | cause different amounts of disruption of the tight junctions | causes syndecan-1 ectodomain shedding | did not cause an increase in syndecan-4 ectodomain shedding |  | 
B1 | Hep III and cABC had more effect than Hep I |  |  | more pronounced effect than Hep III | Hep III had more effect on tight junction disruption than cABC and Hep I |  | Hep III had more effect on tight junction disruption than cABC and Hep I |  |  | causes syndecan-1 ectodomain shedding | did not cause an increase in syndecan-4 ectodomain shedding | cause different amounts of disruption of the tight junctions | 
B2 | more effect than Hep I |  |  | Hep I and cABC had more pronounced effect than Hep III | more effect on tight junction disruption than cABC and Hep I |  | more effect on tight junction disruption than cABC and Hep I |  |  | causes syndecan-1 ectodomain shedding | did not cause an increase in syndecan-4 ectodomain shedding |  | cause different amounts of disruption of the tight junctions
